From ChEMBL document CHEMBL5380876, “Non-fused imidazole-biphenyl analogs repress triple-negative breast cancer growth by mainly stabilizing the c-MYC G-quadruplex via a multi-site binding mode” (Bioorg Med Chem, 2023)
Activity calls are given as the source filed them. No cut-off for these calls is given here.

Experiments:
MDA-MB-231 [1] = assay: Induction of cell cycle arrest in human MDA-MB-231 cells assessed as accumulation of cells at S phase at 4 uM incubated for 24 hrs by propidium iodide staining based flow cytometry analysis (reference value: 15.50%); type: functional
A549 = assay: Cytotoxicity against human A549 cells assessed as reduction in cell viability by CCK8 assay; type: functional, cell-based
HEK293 = assay: Downregulation of c-MYC expression in human HEK293 cells transfected with psiCHECK2 luciferase plasmid at 1 to 4 uM incubated for 24 hrs by dual luciferase reporter assay; type: functional, cell-based; conditions: dose 1-4 µM
MDA-MB-231 [2] = assay: Induction of cell cycle arrest in human MDA-MB-231 cells assessed as accumulation of cells at G0/G1 phase at 2 uM incubated for 24 hrs by propidium iodide staining based flow cytometry analysis (reference value: 66.35%); type: functional
MDA-MB-231 [3] = assay: Induction of cell cycle arrest in human MDA-MB-231 cells assessed as accumulation of cells at S phase at 1 uM incubated for 24 hrs by propidium iodide staining based flow cytometry analysis (reference value: 15.50%); type: functional
[4] = Cytotoxicity against human MCF-10A cells assessed as reduction in cell viability by CCK8 assay; type: toxicity, cell-based
Quadruplex DNA [5] = assay: Stabilization of c-MYC G4 quadruplex DNA (unknown origin) assessed as change in temperature incubated for 2 hrs in presence of telomer by FRET assay; type: nucleic-acid assay
MDA-MB-231 [6] = assay: Induction of cell cycle arrest in human MDA-MB-231 cells assessed as upregulation of p21 accumulation at 1 to 4 uM measured after 24 hrs by Western blot analysis; type: functional, cell-based; conditions: dose 1-4 µM
MDA-MB-231 [7] = assay: Downregulation of c-MYC protein expression in human MDA-MB-231 cells at 1 to 4 uM measured after 24 hrs by Western blot analysis; type: functional, cell-based; conditions: dose 1-4 µM
[8] = Toxicity in BALB/c mouse xenografted with human MDA-MB-231 cells assessed as effect on lung at 5 mg/kg, ip administered every other day for 20 days and measured every 4 days; type: organism-based; conditions: in vivo, 480 h, time 20 day
MDA-MB-231 [9] = assay: Induction of cell cycle arrest in human MDA-MB-231 cells assessed as downregulation of cyclin B expression at 1 to 4 uM incubated for 24 hrs by Western blot analysis; type: functional, cell-based; conditions: dose 1-4 µM
MDA-MB-231 [10] = assay: Induction of autophagy in human MDA-MB-231 cells assessed as increase in fluorescence intensity of LC3B in cytoplasm at 4 uM measured after 24 hrs by immunofluorescence based analysis; type: functional, cell-based
Quadruplex DNA [11] = assay: Binding affinity to c-MYC G4 quadraplex DNA (unknown origin) assessed as dissociation constant by fluorescence titration based analysis; type: nucleic-acid assay
MDA-MB-231 [12] = assay: Cytotoxicity against human MDA-MB-231 cells assessed as inhibition of cell growth at 0 to 20 uM incubated for 72 hrs by CCK-8 assay; type: functional, cell-based; conditions: MDA-MB-231, 72 h
[13] = Toxicity in BALB/c mouse xenografted with human MDA-MB-231 cells assessed as effect on body weight at 5 mg/kg, ip administered every other day for 20 days and measured every 4 days; type: organism-based; conditions: in vivo, 480 h, time 20 day
Quadruplex DNA [14] = assay: Stabilization of c-MYC G4 quadruplex DNA (unknown origin) assessed as change in temperature incubated for 2 hrs in presence of KRAS by FRET assay; type: nucleic-acid assay
[15] = Toxicity in BALB/c mouse xenografted with human MDA-MB-231 cells assessed as effect on liver at 5 mg/kg, ip administered every other day for 20 days and measured every 4 days; type: organism-based; conditions: in vivo, 480 h, time 20 day
MDA-MB-231 [16] = assay: Induction of cell cycle arrest in human MDA-MB-231 cells assessed as accumulation of cells at G2/M phase at 1 uM incubated for 24 hrs by propidium iodide staining based flow cytometry analysis (reference value: 17.58%); type: functional
MDA-MB-231 [17] = assay: Induction of cell cycle arrest in human MDA-MB-231 cells assessed as accumulation of cells at sub-G1 phase at 1 uM incubated for 24 hrs by propidium iodide staining based flow cytometry analysis (reference value: 0.57%); type: functional
MDA-MB-231 [18] = assay: Inhibition of colony formation in human MDA-MB-231 cells assessed as reduction in number of visible cell colonies at 0.1 to 0.4 uM measured after 14 days by crystal violet based staining analysis; type: functional; conditions: dose 0.1-0.4 µM, time 14.0 day
MDA-MB-231 [19] = assay: Induction of cell cycle arrest in human MDA-MB-231 cells assessed as accumulation of cells at G2/M phase at 2 uM incubated for 24 hrs by propidium iodide staining based flow cytometry analysis (reference value: 17.58%); type: functional
[20] = Toxicity in BALB/c mouse xenografted with human MDA-MB-231 cells assessed as effect on spleen at 5 mg/kg, ip administered every other day for 20 days and measured every 4 days; type: organism-based; conditions: in vivo, 480 h, time 20 day
MDA-MB-231 [21] = assay: Induction of apoptosis in human MDA-MB-231 cells assessed as increase in late apoptotic cells at 1 to 4 uM incubated for 24 hrs by Annexin-V FITC/PI double staining based flow cytometry analysis; type: functional, cell-based; conditions: dose 1-4 µM
MDA-MB-231 [22] = assay: Induction of apoptosis in human MDA-MB-231 cells assessed as decrease in necrotic cells at 1 to 4 uM incubated for 24 hrs by Annexin-V FITC/PI double staining based flow cytometric analysis; type: functional, cell-based; conditions: dose 1-4 µM
MDA-MB-231 [23] = assay: Cytotoxicity against human MDA-MB-231 cells assessed as reduction in cell viability by CCK8 assay; type: functional, cell-based
[24] = Toxicity in BALB/c mouse xenografted with human MDA-MB-231 cells assessed as effect on heart at 5 mg/kg, ip administered every other day for 20 days and measured every 4 days; type: organism-based; conditions: in vivo, 480 h, time 20 day
MDA-MB-231 [25] = assay: Induction of DNA damage in human MDA-MB-231 cells assessed as increase in gamma-H2AX fluorescence intensity at 4 uM measured after 24 hrs by immunofluorescence analysis; type: functional, cell-based
[26] = Toxicity in BALB/c mouse xenografted with human MDA-MB-231 cells assessed as distress at 5 mg/kg, ip administered every other day for 20 days and measured every 4 days; type: organism-based; conditions: in vivo, 480 h, time 20 day
MDA-MB-231 [27] = assay: Induction of cell cycle arrest in human MDA-MB-231 cells assessed as accumulation of cells at sub-G1 phase at 2 uM incubated for 24 hrs by propidium iodide staining based flow cytometry analysis (reference value: 0.57%); type: functional
MDA-MB-231 [28] = assay: Upregulation of phosphorylated Chk2 in human MDA-MB-231 cells at 1 to 4 uM measured after 24 hrs by Western blot analysis; type: functional, cell-based; conditions: dose 1-4 µM
MDA-MB-231 [29] = assay: Cytotoxicity against human MDA-MB-231 cells assessed as inhibition of cell growth at 0 to 20 uM incubated for 48 hrs by CCK-8 assay; type: functional, cell-based; conditions: MDA-MB-231, 48 h
Quadruplex DNA [30] = assay: Stabilization of G4 quadruplex telomeric22 DNA (unknown origin) assessed as change in melting temperature by circular dichroism melting assay

Activity (Quadruplex DNA [5]): Active
Kd (Quadruplex DNA [11]): 2700 nM
Activity (Quadruplex DNA [14]): Active
ΔTm (Quadruplex DNA [30]): 0 °C
Compound: CN1CCN(c2ccc(-c3nc(-c4ccc(-c5ccc(C(F)(F)F)cc5)cc4)[nH]c3-c3ccc(N4CCN(C)CC4)cc3)cc2)CC1
Activity (MDA-MB-231 [1]): 6.09%
IC50 (A549): 1260 nM
Activity (HEK293): Active
Activity (MDA-MB-231 [2]): 76.42%
Activity (MDA-MB-231 [3]): 11.14%
IC50 [4]: 8770 nM
Activity (MDA-MB-231 [6]): Active
Activity (MDA-MB-231 [7]): Active
Activity [8]: Non-Toxic
Activity (MDA-MB-231 [9]): Active
Activity (MDA-MB-231 [10]): Active
IC50 (MDA-MB-231 [12]): 660 nM
Activity [13]: Non-Toxic
Activity [15]: Non-Toxic
Activity (MDA-MB-231 [16]): 13.49%
Activity (MDA-MB-231 [17]): 0.66%
inhibition (MDA-MB-231 [18]): Active
Activity (MDA-MB-231 [19]): 11.35%
Activity [20]: Non-Toxic
Activity (MDA-MB-231 [21]): Active
Activity (MDA-MB-231 [22]): inactive
IC50 (MDA-MB-231 [23]): 1840 nM
Activity [24]: Non-Toxic
Activity (MDA-MB-231 [25]): Active
Activity [26]: Non-Toxic
Activity (MDA-MB-231 [27]): 0.68%
Activity (MDA-MB-231 [28]): Active
IC50 (MDA-MB-231 [29]): 870 nM
